Assay results as given in US20100197740A1, “Method of Screening Compounds Having Anti-Amyloid Properties” (LES LABORATOIRES SERVIER, priority 2006, published 2010).

Legend:
Aβ42-α7 nAChR complexes [1] = biological target: T1, Aβ42-α7 nAChR complexes (Homo sapiens, UniProt P36544); assay: Dissociation of Aβ42-α7 nAChR complexes already present in frontal cortex synaptosomes of Alzheimer's disease patients (immunoprecipitation, Western blot); type: binding
T1 construct: dissociation of the complexes already present in the diseased human tissues; tissue Harvard Brain Tissue Resource Center and Analytical Biological Services; host or cells: post-mortem frontal cortex synaptosomes of Alzheimer's disease patients
T1 sequence (P36544 23-502, one chain of several): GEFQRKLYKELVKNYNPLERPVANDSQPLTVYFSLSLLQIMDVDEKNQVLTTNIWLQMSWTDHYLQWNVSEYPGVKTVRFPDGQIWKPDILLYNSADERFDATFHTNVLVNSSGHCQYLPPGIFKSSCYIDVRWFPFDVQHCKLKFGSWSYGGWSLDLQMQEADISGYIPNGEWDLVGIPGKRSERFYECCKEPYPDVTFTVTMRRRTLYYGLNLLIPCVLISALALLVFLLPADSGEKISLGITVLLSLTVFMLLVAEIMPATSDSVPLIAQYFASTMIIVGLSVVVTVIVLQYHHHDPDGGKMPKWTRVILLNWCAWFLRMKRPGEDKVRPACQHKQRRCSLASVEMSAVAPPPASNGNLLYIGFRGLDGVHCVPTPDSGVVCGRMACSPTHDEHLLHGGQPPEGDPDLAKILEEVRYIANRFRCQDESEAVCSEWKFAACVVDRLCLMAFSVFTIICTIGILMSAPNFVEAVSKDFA
Protocol: FIG. 3: Western blot illustrating the dissociation, caused by S 24795, of Aβ42-α7 nAChR complexes obtained post-mortem from frontal cortex synaptosomes of Alzheimer's disease patients or control subjects. The Aβ42-α7 nAChR complexes are incubated in the medium (Krebs-Ringer) on its own or in the presence of S 24795 (1, 10, 30 or 100 μM) for 10 minutes and then in the presence or absence of Aβ42 (100 nM).
FIG. 4: Quantification of the dissociation of the interaction of α7 nAChR receptors associated with Aβ42 in human frontal cortex synaptosomes obtained post-mortem from Alzheimer's disease patients and control subjects and incubated with S 24795 (from 1 to 100 μM) and then in the presence or absence of Aβ42 (100 nM). *: p<0.01 for controls and Alzheimer's disease patients, Newman-Keuls test for multiple comparisons.
(§1) 100 mg of post-mortem frontal cortex ground on ice are homogenised in 10 volumes of 10 mM HEPES pH 7.4 maintained on ice and oxygenated in the presence of […] sucrose and 0.1 mM EDTA and then mixed in a Teflon/glass tissue grinder at 4° C. in a homogenisation solution containing 25 mM HEPES pH 7.5, 1 mM EDTA, 50 μg/ml of leupeptin, 10 μg/ml of aprotinin, 2 μg/ml of soy trypsin inhibitor, 0.04 mM PMSF, a mixture of phosphatase inhibitor proteins, and 0.2% […].
The homogenate is centrifuged, firstly, at 1000 g and 4° C. for 10 minutes. The supernatant obtained in that first centrifugation is centrifuged for a second time at 15000 g for 30 minutes to obtain a sediment of synaptosomes.
The sediment of synaptosomes is washed twice by suspension in 10 ml of Krebs-Ringer solution, maintained on ice, comprising 25 mM HEPES pH 7.4, 118 mM NaCl, 4.8 mM KCl, 25 mM NaHCO3, 1.3 mM CaCl2, 1.2 mM MgSO4, 1.2 mM KH2PO4, 10 mM glucose, 100 μM ascorbic acid, 50 μg/ml of leupeptin, 10 μg/ml of aprotinin, 2 μg/ml of soy trypsin inhibitor, 0.04 mM PMSF and a mixture of phosphatase inhibitor proteins, aerated for 10 minutes using 95% O2/5% CO2 and then centrifuged again at 15000 g for 10 minutes at 4° C. The washed synaptosomes are then suspended in 1 ml of oxygenated Krebs-Ringer solution and the protein concentration of said synaptosome suspension is determined by the Bradford method.
The human cortex synaptosomes are incubated in an oxygenated Krebs-Ringer solution in the presence of the compound S 24795 at 37° C. for 30 minutes in a total incubation volume of 500 μl. The compound S 24795 is present in the reaction mixture at a concentration of 1 μM, 10 μM, 30 μM or 100 μM. Depending on the experiments being carried out, the synaptosomes are also incubated in the presence of 100 nM Aβ42 or in the presence of the vehicle. […]

Aβ42-α7 nAChR complexes [2] = biological target: T1, Aβ42-α7 nAChR complexes; assay: Inhibition of formation of Aβ42-α7 nAChR complexes in post-mortem frontal cortex synaptosomes (immunoprecipitation, Western blot); type: binding; conditions: S 24795 30 μM added before Aβ peptides (Aβ42 100 nM); non-diseased control human cortex synaptosomes
Protocol: FIG. 1: Western blot illustrating the inhibition, by S 24795, of Aβ42-α7 nAChR complexes obtained post-mortem from frontal cortex synaptosomes of Alzheimer's disease patients or control subjects. The Aβ42-α7 nAChR complexes are incubated in the medium (Krebs-Ringer) on its own or in the presence of S 24795 (30 μM) for 10 minutes, followed by incubation in the presence of Aβ42 peptide for 30 minutes.
FIG. 2: Quantification of the inhibition of the formation of Aβ42-α7 nAChR complexes in human frontal cortex synaptosomes obtained post-mortem from Alzheimer's disease patients and control subjects and incubated with S 24795 (30 μM)—or not—and then with Aβ42 peptides (100 nM). *: p<0.01 for controls and Alzheimer's disease patients, Newman-Keuls test for multiple comparisons.
as §1
The homogenate is centrifuged, firstly, at 1000 g and 4° C. for 10 minutes. […]

α7 nAChR and NMDAR = assay: Functional recovery: 45Ca2+ entry into frontal cortex synaptosomes via α7 and NMDA receptors; type: biochemical, human
Protocol: FIG. 5: Quantification of the entry of ^45Ca^2+ into human frontal cortex synaptosomes obtained post-mortem from Alzheimer's disease patients and from control subjects and treated with S 24795. The control brain slices are incubated in the presence of Aβ42 (1 μM)—or not—prior to the treatment with S 24795 (10 μM). Calcium entry is brought about either by α7 agonist (PNU282987) or by NMDA added to glycine.
The functional recovery experiments are carried out using brains according to I.2 obtained from patients according to I.1.
The functional recovery brought about by the treatment with S 24795 (10 μM) is evaluated with reference to the calcium influx via α7 and NMDA receptors. It was tested after 1 hour of treatment with S 24795 on control brains exposed to Aβ42 (30 minutes) and on brains of Alzheimer's disease patients. The treatments using Aβ42 (1 μM) and S 24795 (10 μM) are carried out on slices of cortex obtained from those brains. Synaptosomes are then prepared as described in I.4. In order to evaluate the Ca^2+ influxes via the α7 and NMDA receptors, the synaptosomes are incubated in the presence of ^45Ca^2+ (5 μM) for 5 minutes at 37° C. in Krebs-Ringer medium. The Ca^2+ fluxes are brought about for α7 selective α7nAChR receptor agonist, PNU282987 (0.1, 1 and 10 μM), and for the NMDAR receptors by the addition of NMDA (0.1, 1, 10 μM) and glycine (1 μM). The reaction is stopped by the addition of Krebs-Ringer (4° C.) containing EGTA but not containing calcium. After two washings, the synaptosomes are lysed by sonication in ethanol (95%) and the radioactivity is counted by liquid scintillation spectrometry. The specificity of the calcium influxes is checked by means of the addition of selective inhibitors of the α7 receptor (α-bungarotoxin) and of the NMDA receptor (AP-5).

1-(4-bromophenyl)-2-(1-methyl-2-pyridiniumyl)-1-ethanone chloride or iodide [S 24795]
reduction in the Aβ42-α7 nAChR complexes previously present in the diseased brain extracts (Aβ42-α7 nAChR complexes [1]; S 24795 1 μM, absence of exogenous Aβ peptides, Alzheimer's disease synaptosomes): about 22%
reduction in the Aβ42-α7 nAChR complexes previously present in the diseased brain extracts (Aβ42-α7 nAChR complexes [1]; S 24795 10, 30 and 100 μM, absence of exogenous Aβ peptides, dose-dependent): substantial
reduction of non-dissociated Aβ42-α7 nAChR complexes (Aβ42-α7 nAChR complexes [1]; S 24795 at the highest concentration (100 μM), absence of exogenous Aβ peptides, Alzheimer's disease synaptosomes, p<0.01): ~63%
reduction in the amount of Aβ42-α7 nAChR complexes present in the diseased brains (Aβ42-α7 nAChR complexes [1]; synaptosomes from cortices of Alzheimer's disease patients, S 24795 30 μM, Aβ peptides added (FIG. 1)): substantial reduction
reduction of the amount of Aβ42-α7 nAChR complexes formed (Aβ42-α7 nAChR complexes [2]): 92%
Ca2+ entry level as % of the control values without Aβ (α7 nAChR and NMDAR; after S 24795 10 μM, brains of Alzheimer's disease patients and of controls pretreated with Aβ (comparable levels)): about 65%
increase in Ca2+ entry compared to the brains of untreated Alzheimer's disease patients (α7 nAChR and NMDAR; brains of Alzheimer's disease patients, S 24795 10 μM for 1 hour): ~75%
re-establishment of Ca2+ entry (α7 nAChR and NMDAR; control brain slices exposed to Aβ42 (1 μM), then S 24795 10 μM for 1 hour): substantial re-establishment
